Laboratory results: PubChem BioAssay AID248 (DTP/NCI, 2004)
“And” between values parts separate entries of the source, which are not always exact repeats. Equal entries are not always repeated. Toxic doses and inconclusive results are not listed. Cut-off read from the data, not from the text of the source: active = T/C of 150% or more; inactive = T/C below 125%.

System: L1210 leukemia ip in BDF1 mice, survival T/C
Experiment: NCI In Vivo Anticancer Drug Screen. Data for tumor model L1210 Leukemia (intraperitoneal) in B6D2F1 (BDF1) mice
Conditions: endpoint: mean survival time, higher = longer survival
Procedure, shortened: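 Transplanted-tumor mice were given test agent; controls received vehicle only. Survival readings from the two groups were divided (treated over control).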

[1] = dose: 100.0 mg/kg/injection, schedule: Q01DX001 (ip), vehicle: Klucel (hydroxypropylcellulose) (HPC)
[2] = dose: 100.0 mg/kg/injection, schedule: Q01DX009 (ip), vehicle: saline with Tween-80
[3] = dose: 200.0 mg/kg/injection, schedule: Q01DX001 (ip), vehicle: Klucel (hydroxypropylcellulose) (HPC)
[4] = dose: 200.0 mg/kg/injection, schedule: Q01DX009 (ip), vehicle: saline with Tween-80
[5] = dose: 400.0 mg/kg/injection, schedule: Q01DX001 (ip), vehicle: Klucel (hydroxypropylcellulose) (HPC)
[6] = dose: 100.0 mg/kg/injection, schedule: Q01DX001 (ip), vehicle: carboxymethylcellulose (CMC)
[7] = dose: 200.0 mg/kg/injection, schedule: Q01DX001 (ip), vehicle: carboxymethylcellulose (CMC)
[8] = dose: 400.0 mg/kg/injection, schedule: Q01DX001 (ip), vehicle: carboxymethylcellulose (CMC)
[9] = dose: 100.0 mg/kg/injection, schedule: Q01DX009 (ip), vehicle: Klucel (hydroxypropylcellulose) (HPC)
[10] = dose: 100.0 mg/kg/injection, schedule: Q04DX003 (ip), vehicle: Klucel (hydroxypropylcellulose) (HPC)
[11] = dose: 200.0 mg/kg/injection, schedule: Q01DX009 (ip), vehicle: Klucel (hydroxypropylcellulose) (HPC)
[12] = dose: 200.0 mg/kg/injection, schedule: Q04DX003 (ip), vehicle: Klucel (hydroxypropylcellulose) (HPC)
[13] = dose: 400.0 mg/kg/injection, schedule: Q01DX009 (ip), vehicle: Klucel (hydroxypropylcellulose) (HPC)
[14] = dose: 400.0 mg/kg/injection, schedule: Q04DX003 (ip), vehicle: Klucel (hydroxypropylcellulose) (HPC)
[15] = dose: 100.0 mg/kg/injection, schedule: Q04DX003 (ip), vehicle: other
[16] = dose: 200.0 mg/kg/injection, schedule: Q04DX003 (ip), vehicle: other
[17] = dose: 100.0 mg/kg/injection, schedule: Q04DX002 (ip), vehicle: Klucel (hydroxypropylcellulose) (HPC)
[18] = dose: 200.0 mg/kg/injection, schedule: Q04DX002 (ip), vehicle: Klucel (hydroxypropylcellulose) (HPC)
[19] = dose: 12.5 mg/kg/injection, schedule: Q01DX001 (ip), vehicle: Klucel (hydroxypropylcellulose) (HPC)
[20] = dose: 50.0 mg/kg/injection, schedule: Q01DX009 (ip), vehicle: Klucel (hydroxypropylcellulose) (HPC)

Measured: T/C

Cc1ccc(NC(=O)c2ccc([N+](=O)[O-])cc2)c(C)c1
inactive: [1] 91 % of control | [2] 96 % of control | dose: 100.0 mg/kg/injection, schedule: Q04DX003 (ip), vehicle: saline with Tween-80 94 % of control | [3] 94 % of control | [4] 102 % of control | dose: 200.0 mg/kg/injection, schedule: Q04DX003 (ip), vehicle: saline with Tween-80 96 % of control | [5] 112 % of control | dose: 400.0 mg/kg/injection, schedule: Q01DX009 (ip), vehicle: saline with Tween-80 96 % of control | dose: 400.0 mg/kg/injection, schedule: Q04DX003 (ip), vehicle: saline with Tween-80 99 % of control

NC(N)=NCCCCCCN=C(N)N
inactive: dose: 6.25 mg/kg/injection, schedule: Q01DX Z (oral), vehicle: saline 106 % of control | dose: 6.25 mg/kg/injection, schedule: Q04DX003 (ip), vehicle: saline with Tween-80 100 % of control | dose: 12.5 mg/kg/injection, schedule: Q01DX Z (oral), vehicle: saline 103 % of control | dose: 12.5 mg/kg/injection, schedule: Q04DX003 (ip), vehicle: saline with Tween-80 100 % of control | dose: 25.0 mg/kg/injection, schedule: Q01DX Z (oral), vehicle: saline 103 % of control | dose: 25.0 mg/kg/injection, schedule: Q04DX003 (ip), vehicle: saline with Tween-80 99 % of control and 101 % of control

CCC1([N+](=O)[O-])COP(=O)(NCc2cccnc2)OC1 (stereo unspecified)
inactive: [6] 92 % of control | [7] 101 % of control | [8] 116 % of control

O=C(NC(=S)Nc1cccc2ccccc12)c1ccccc1F
inactive: dose: 100.0 mg/kg/injection, schedule: Q04DX002 (ip), vehicle: saline 102 % of control | dose: 200.0 mg/kg/injection, schedule: Q04DX002 (ip), vehicle: saline 88 % of control | dose: 400.0 mg/kg/injection, schedule: Q04DX002 (ip), vehicle: saline 102 % of control

CCOC12c3ccccc3N(S(C)(=O)=O)C(C)C1C2(Br)Br (stereo unspecified)
inactive: [9] 94 % of control | [10] 110 % of control | [11] 94 % of control | [12] 102 % of control | [13] 90 % of control | [14] 109 % of control

Cn1nnc2c1C(=O)c1ccccc1C2=O
inactive: [15] 97 % of control | [16] 97 % of control

O=C(c1ccco1)C(O)c1ccco1 (stereo unspecified)
inactive: [17] 96 % of control | [18] 104 % of control

CC(C)=CCc1c2c(c3occ(-c4ccc(O)c(O)c4)c(=O)c3c1O)C=CC(C)(C)O2
inactive: dose: 50.0 mg/kg/injection, schedule: Q04DX003 (ip), vehicle: Klucel (hydroxypropylcellulose) (HPC) 93 % of control | [10] 100 % of control | [12] 104 % of control

CC(=O)On1nnc2c(Cl)c(Cl)c(Cl)c(Cl)c21
inactive: dose: 100.0 mg/kg/injection, schedule: Q04DX003 (ip), vehicle: saline 94 % of control | dose: 200.0 mg/kg/injection, schedule: Q04DX003 (ip), vehicle: saline 94 % of control | dose: 400.0 mg/kg/injection, schedule: Q04DX003 (ip), vehicle: saline 87 % of control

CCCCOC(=O)Nc1cccc(O)c1
inactive: [2] 92 % of control | [4] 87 % of control

Cc1ccc(S(=O)(=O)N(CCCBr)c2ccc(C3(CCl)OCCO3)cc2)cc1
inactive: [1] 91 % of control | [3] 91 % of control | [5] 91 % of control

NC1=CCNN1
inactive: dose: 75.0 mg/kg/injection, schedule: Q01DX001 (ip), vehicle: saline 106 % of control | dose: 150.0 mg/kg/injection, schedule: Q01DX001 (ip), vehicle: saline 93 % of control | dose: 300.0 mg/kg/injection, schedule: Q01DX001 (ip), vehicle: saline 94 % of control

CNC(C)C1CCC2C3CC=C4CC(O)CCC4(C)C3CCC12C (stereo unspecified)
inactive: dose: 100.0 mg/kg/injection, schedule: Q01DX001 (sc), vehicle: steriod suspending solution 104 % of control | dose: 200.0 mg/kg/injection, schedule: Q01DX001 (sc), vehicle: steriod suspending solution 87 % of control | dose: 400.0 mg/kg/injection, schedule: Q01DX001 (sc), vehicle: steriod suspending solution 94 % of control

CCCCCCCCCCCCCC[As](=O)(O)CCCCCCCCCCCCCC
inactive: dose: 50.0 mg/kg/injection, schedule: Q01DX001 (ip), vehicle: saline 103 % of control | dose: 100.0 mg/kg/injection, schedule: Q01DX001 (ip), vehicle: saline 101 % of control | dose: 200.0 mg/kg/injection, schedule: Q01DX001 (ip), vehicle: saline 101 % of control | dose: 400.0 mg/kg/injection, schedule: Q01DX001 (ip), vehicle: saline 95 % of control

O=[N+]([O-])/C=C/c1ccc([N+](=O)[O-])o1
inactive: dose: 3.0 mg/kg/injection, schedule: Q01DX001 (ip), vehicle: Klucel (hydroxypropylcellulose) (HPC) 106 % of control | dose: 6.0 mg/kg/injection, schedule: Q01DX001 (ip), vehicle: Klucel (hydroxypropylcellulose) (HPC) 98 % of control | dose: 12.0 mg/kg/injection, schedule: Q01DX001 (ip), vehicle: Klucel (hydroxypropylcellulose) (HPC) 92 % of control | [19] 107 % of control

O=C(Nc1ccc(C(=O)O)cc1)Nc1ccccc1F
inactive: [20] 93 % of control | [9] 104 % of control

[O-][N+](=Nc1cccc(Br)c1)c1cccc(Br)c1
inactive: dose: 50.0 mg/kg/injection, schedule: Q01DX001 (ip), vehicle: carboxymethylcellulose (CMC) 101 % of control | [6] 104 % of control | [7] 101 % of control | [8] 117 % of control

OCc1cccc2c1CCC2
inactive: [19] 100 % of control | dose: 12.5 mg/kg/injection, schedule: Q01DX009 (ip), vehicle: Klucel (hydroxypropylcellulose) (HPC) 104 % of control | dose: 25.0 mg/kg/injection, schedule: Q01DX001 (ip), vehicle: Klucel (hydroxypropylcellulose) (HPC) 100 % of control | dose: 25.0 mg/kg/injection, schedule: Q01DX009 (ip), vehicle: Klucel (hydroxypropylcellulose) (HPC) 96 % of control | dose: 50.0 mg/kg/injection, schedule: Q01DX001 (ip), vehicle: Klucel (hydroxypropylcellulose) (HPC) 102 % of control | [20] 94 % of control

CC(C)C(O)c1cnc(OCc2ccccc2)nc1OCc1ccccc1 (stereo unspecified)
inactive: [9] 96 % of control | [15] 98 % of control | [11] 101 % of control | [16] 103 % of control | [13] 101 % of control | dose: 400.0 mg/kg/injection, schedule: Q04DX003 (ip), vehicle: other 103 % of control

CCOC(=O)CNc1cccc(Cl)c1
inactive: [17] 107 % of control | [18] 103 % of control | dose: 400.0 mg/kg/injection, schedule: Q04DX002 (ip), vehicle: Klucel (hydroxypropylcellulose) (HPC) 96 % of control

O=C(COc1ccc(Cl)c(Cl)c1)N(Cc1ccccc1)Cc1cccnc1
inactive: [1] 99 % of control | [9] 98 % of control | [10] 100 % of control | [3] 96 % of control | [11] 116 % of control | [12] 96 % of control | [5] 96 % of control | [13] 100 % of control | [14] 98 % of control
